# Test results from patent publication US20090036475A1, “Pyrazolyl-Pyrimidines as Potassium Channel Modulating Agents and Their Medical Use” (NEUROSEARCH A/S, priority 2006, published 2009).
# Tested on: not given
# Experiment: not given
# Conditions: not given
row,melting point [°C],Compound
1,135.3 to 137.8,"Cc1cc(Nc2ccc(Cl)c(Cl)c2)nc(-n2nc(C)cc2C)n1 [Compound B4, (3,4-Dichloro-phenyl)-[2-(3,5-dimethyl-pyrazol-1-yl)-6-methyl-pyrimidin-4-yl]-amine]"
2,144.5 to 154,"Cc1cc(C)n(-c2ncc(Br)c(Nc3ccc(Cl)cc3)n2)n1 [Compound B10, [5-Bromo-2-(3,5-dimethyl-pyrazol-1-yl)-pyrimidin-4-yl]-(4-chloro-phenyl)-amine]"
3,135.9 to 137.3,"Cc1cc(NCc2ccccc2)nc(-n2nc(C)cc2C)n1 [Compound A1, Benzyl-[2-(3,5-dimethyl-pyrazol-1-yl)-6-methyl-pyrimidin-4-yl]-amine]"
4,130.5 to 133.6,"Cc1cc(Nc2cccc(C(F)(F)F)c2)nc(-n2nc(C)cc2C)n1 [Compound B6, [2-(3,5-Dimethyl-pyrazol-1-yl)-6-methyl-pyrimidin-4-yl]-(3-trifluoromethyl-phenyl)-amine]"
5,98.5 to 99.6,"Cc1cc(C)n(-c2nccc(Nc3cccc(C(F)(F)F)c3)n2)n1 [Compound B8, [2-(3,5-Dimethyl-pyrazol-1-yl)-pyrimidin-4-yl]-(3-trifluoromethyl-phenyl)-amine]"

# The remaining lines, values behind:
row,Compound,melting point [°C]
1,"Cc1cc(C)n(-c2nccc(NC3CCCCC3)n2)n1 [Compound A5, Cyclohexyl-[2-(3,5-dimethyl-pyrazol-1-yl)-pyrimidin-4-yl]-amine]",144.5 to 146.7
2,"Cc1cc(C)n(-c2ncc(C)c(Nc3ccc(Cl)cc3)n2)n1 [Compound B12, (4-Chloro-phenyl)-[2-(3,5-dimethyl-pyrazol-1-yl)-5-methyl-pyrimidin-4-yl]-amine]",179.2 to 182.3
3,"Cc1ccc(Nc2ccnc(-n3nc(C)cc3C)n2)cc1 [Compound B11, [2-(3,5-Dimethyl-pyrazol-1-yl)-pyrimidin-4-yl]-p-tolyl-amine]",52 to 55.6
4,"Cc1cc(Nc2ccccc2)nc(-n2nc(C)cc2C)n1 [Compound B2, [2-(3,5-Dimethyl-pyrazol-1-yl)-6-methyl-pyrimidin-4-yl]-phenyl-amine]",134.5 to 138.8
5,"Cc1cc(Nc2ccc(Cl)cc2)nc(-n2nc(C)cc2C)n1 [Compound B3, (4-Chloro-phenyl)-[2-(3,5-dimethyl-pyrazol-1-yl)-6-methyl-pyrimidin-4-yl]-amine]",181 to 183.2
6,"Cc1cc(C)n(-c2nccc(Nc3ccc(Cl)cc3)n2)n1 [Compound B9, (4-Chloro-phenyl)-[2-(3,5-dimethyl-pyrazol-1-yl)-pyrimidin-4-yl]-amine]",135.5 to 140
7,"Cc1cc(C)n(-c2ncc(Cl)c(NC3CCCCC3)n2)n1 [Compound A6, [5-Chloro-2-(3,5-dimethyl-pyrazol-1-yl)-pyrimidin-4-yl]-cyclohexyl-amine]",90 to 99
8,"Cc1ccc(Nc2cc(C)nc(-n3nc(C)cc3C)n2)cc1 [Compound B1, [2-(3,5-Dimethyl-pyrazol-1-yl)-6-methyl-pyrimidin-4-yl]-p-tolyl-amine]",135.1 to 137.5

# Target: T1, small-conductance Ca2+-activated K+ channel, subtype 3 (SK3) (Homo sapiens, UniProt Q9UGI6)
# T1 construct: expressed in transfected cells; host or cells: HEK293
# Experiment: Whole-cell patch-clamp recording of SK3 current in HEK293 cells
# Assay type: cell-based
# Conditions: hSK3 stably expressed in HEK293 cells, baseline current at −20 mV, free Ca2+ 300 nM, room temperature
# Experimental: The ionic current through small-conductance Ca^2+-activated K^+ channels (SK channels, subtype 3) is recorded using the whole-cell configuration of the patch-clamp technique.
# The small-conductance Ca^2+-activated K^+ channel, subtype 3 (SK3) was cloned from human skeletal muscle and stably expressed in HEK293 cells.
# Human SK3 (hSK3) was sub-cloned into the expression vector pNS3n, a customized vector derived from pcDNA3 (InVitrogen) to give the plasmid construct pNS3_hSK3. HEK293 tissue culture cells were grown in DMEM (Dulbecco's Modified Eagle Medium) supplemented with 10% FCS (foetal calf serum) at 37° C. in 5% CO2. […]
# Experiments are carried out on one of several patch-clamp set-ups. […] Data are stored directly on the hard-disk and analysed by IGOR software (Wavemetrics, Lake Oswega, Oreg., USA).
# The whole-cell configuration of the patch-clamp technique is applied. […] Cell capacitance is electronically compensated and the resistance between the pipette and the cell interior (the series resistance, Rs) is measured and compensated for. […]
# The intracellular (pipette) solution has the following composition (in mM): 105 KCl, 45 KOH, 10 EGTA, 1.21 MgCl2, 7.63 CaCl2, and 10 HEPES (pH=7.2 with HCl). The calculated free concentration of Ca^2+ in this solution is 300 nM and that of Mg^2+ is 1 mM. […]
# Active compounds are quantified by calculating the change in baseline current at −20 mV. […]
row,SC100 (Stimulating Concentration required for increasing the baseline current by 100%) [µM],Compound
1,0.1,"Cc1cc(NC2CCCCC2)nc(-n2nc(C)cc2C)n1 [Compound A2, Cyclohexyl-[2-(3,5-dimethyl-pyrazol-1-yl)-6-methyl-pyrimidin-4-yl]-amine]"
